Data set [1] deals with D(1A) dopamine receptor (Rattus norvegicus) (UniProt P18901).
Description: Binding affinity to dopamine D1 receptor in Rattus norvegicus (rat) brain
In data set [2] the target is D(1A) dopamine receptor (Homo sapiens) (UniProt P21728). In words: Binding affinity to dopamine D1 receptor (unknown origin).
A short description of data set [3]: Half life in Rattus norvegicus (rat) plasma. The data set is classed as ADME, cell-free.

Sequence of D(1A) dopamine receptor (Homo sapiens) (P21728 whole entry): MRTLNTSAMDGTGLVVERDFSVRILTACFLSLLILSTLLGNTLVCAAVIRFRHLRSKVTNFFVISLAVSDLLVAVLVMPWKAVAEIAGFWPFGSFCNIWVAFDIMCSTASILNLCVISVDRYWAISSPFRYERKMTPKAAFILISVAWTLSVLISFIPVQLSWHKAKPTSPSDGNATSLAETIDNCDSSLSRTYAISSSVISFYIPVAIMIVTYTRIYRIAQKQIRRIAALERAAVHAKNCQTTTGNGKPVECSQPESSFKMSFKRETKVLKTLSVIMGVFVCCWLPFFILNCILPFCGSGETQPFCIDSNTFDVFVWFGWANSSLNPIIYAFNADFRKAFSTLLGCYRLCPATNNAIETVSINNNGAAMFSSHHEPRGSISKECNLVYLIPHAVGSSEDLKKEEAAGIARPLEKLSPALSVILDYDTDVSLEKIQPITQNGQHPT
Sequence of D(1A) dopamine receptor (Rattus norvegicus) (P18901 whole entry): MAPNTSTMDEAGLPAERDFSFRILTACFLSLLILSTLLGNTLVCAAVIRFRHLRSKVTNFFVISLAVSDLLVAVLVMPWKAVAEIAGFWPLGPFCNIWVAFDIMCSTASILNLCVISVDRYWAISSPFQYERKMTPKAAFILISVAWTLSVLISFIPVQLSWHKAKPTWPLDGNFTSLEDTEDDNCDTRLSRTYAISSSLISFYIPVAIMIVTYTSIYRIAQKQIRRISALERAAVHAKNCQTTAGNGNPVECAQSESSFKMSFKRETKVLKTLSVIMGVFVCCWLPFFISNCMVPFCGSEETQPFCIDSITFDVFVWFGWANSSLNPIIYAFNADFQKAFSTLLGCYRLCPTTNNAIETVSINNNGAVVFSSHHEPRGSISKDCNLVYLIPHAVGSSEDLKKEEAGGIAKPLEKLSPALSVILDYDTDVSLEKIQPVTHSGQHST

For `Oc1cc2c(cc1O)[C@H]1c3ccccc3CN[C@@H]1CC2`, in data set [1], the K0.5 was determined as 5 nM. Turning to `CCCc1cc2c(s1)CN[C@@H]1CCc3cc(O)c(O)cc3[C@@H]21` (relative stereo), the K0.5 in data set [2] turned out to be 1 nM. With `NC[C@@H]1O[C@H](C23CC4CC(CC(C4)C2)C3)Cc2c1ccc(O)c2O`, the K0.5 in data set [2] is 1 nM. As for `CCCc1cc2c(s1)CN[C@@H]1CCc3cc(OC(C)=O)c(OC(C)=O)cc3[C@@H]21.Cl` (relative stereo) [ADROGOLIDE HYDROCHLORIDE], the half-life (commonly the time in which the quantity being followed falls by half) in data set [3] is 1 min. On to `NC[C@@H]1O[C@H](c2ccccc2)Cc2c1ccc(O)c2O` (relative stereo), for which the K0.5 in data set [2] is 1 nM.

The values above are taken from ChEMBL document CHEMBL3044583, “Mechanisms and Issues Relating to the Use of D1-like Dopamine Receptor Agonists for Age-related Illnesses: Parkinson?s Disease and Memory and Cognition” (Med Chem Res, 2004).
